In PubChem BioAssay (NCI) one finds TGI data, which are given here for six compounds.

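Following 48 hours of exposure in 96-well plates, responses at five concentrations were used to interpolate endpoints linearly. At the TGI there is no net growth.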 Bounds are passed on as bounds.

Test systems include DLD-1 colon; DMS 114 small cell lung; DMS 273 small cell lung; HOP-18 NSCLC; KM20L2 colon; LXFL 529 NSCLC; M19-MEL melanoma; XF 498 CNS; P388 leukemia; P388/ADR leukemia; SN12K1 renal.
Holding throughout (assay): NCI tumour cell line growth inhibition, 48 h

With `CCSc1nc(=[N+]2CCCC2)ss1`, the TGI in the assay on DLD-1 colon was more than 100 µM; in the assay on DMS 114 small cell lung it was 55.5 µM; in the assay with DMS 273 small cell lung, more than 100 µM; in the assay with HOP-18 NSCLC it was more than 100 µM; with KM20L2 colon, more than 100 µM; with LXFL 529 NSCLC, more than 100 µM. Also, the TGI in the assay on M19-MEL melanoma was 27.3 µM; in the assay on XF 498 CNS, more than 77.9 µM.

With `O=C(NN1C(=O)CSC1c1ccc(C(F)(F)F)cc1)c1ccncc1` (stereo not given), the TGI in the assay with DLD-1 colon, with DMS 114 small cell lung, with DMS 273 small cell lung, in the assay on HOP-18 NSCLC, in the assay on KM20L2 colon and with M19-MEL melanoma was more than 100 µM throughout. Moreover, the TGI with P388 leukemia, in the assay with P388/ADR leukemia, in the assay with SN12K1 renal and in the assay with XF 498 CNS was more than 100 µM in each case.

As for `Cc1ccc2c(C)c3ccc4ccccc4c3c[n+]2c1`, the TGI was more than 100 µM with DLD-1 colon; 31 µM in the assay on DMS 114 small cell lung; 32.7 µM in the assay with DMS 273 small cell lung; 43.2 µM with HOP-18 NSCLC; more than 100 µM with KM20L2 colon; 30.4 µM in the assay with LXFL 529 NSCLC. The same compound registered a TGI in the assay on M19-MEL melanoma of 17.3 µM.

Turning to `COC1=CC(=O)c2c(O)c3c(c(O)c2C1=O)C=C(C)OC3O` (stereo not given), the TGI turned out to be 3.87 µM in the assay with DLD-1 colon; 2.96 µM in the assay on DMS 114 small cell lung; 2.17 µM with DMS 273 small cell lung; 10.4 µM with KM20L2 colon; 2.7 µM in the assay with LXFL 529 NSCLC; 0.502 µM in the assay with M19-MEL melanoma. Further, the TGI in the assay with XF 498 CNS is 4.72 µM.

Regarding `CC1OC1C(=O)C1(O)C(C)C(O)C23OC2(C(O)c2c(O)cccc2C3=O)C1O` (stereo not given), the TGI with DLD-1 colon came out at 1.7 µM; in the assay with DMS 114 small cell lung it was 0.191 µM; in the assay with DMS 273 small cell lung it was 0.551 µM; in the assay on HOP-18 NSCLC, 0.489 µM; in the assay with KM20L2 colon, 1.14 µM; in the assay on M19-MEL melanoma it was 0.526 µM. In addition, the TGI in the assay on P388 leukemia was found to be 0.345 µM; with P388/ADR leukemia it was 0.425 µM; in the assay on SN12K1 renal it was 0.889 µM; in the assay with XF 498 CNS, 0.961 µM.

For `CC(c1ccccc1)/[N+]([O-])=C/c1ccccc1` (stereo not given), the TGI with DLD-1 colon, with DMS 114 small cell lung, with DMS 273 small cell lung, with HOP-18 NSCLC, in the assay on KM20L2 colon and in the assay with LXFL 529 NSCLC was more than 100 µM in each case. In addition, the TGI in the assay on M19-MEL melanoma and with XF 498 CNS was more than 100 µM throughout.
